Data taken from paper PMC8745345, “Hydroxy Pentacyclic Triterpene Acid, Kaempferol, Inhibits the Human 5-Hydroxytryptamine Type 3A Receptor Activity” (International Journal of Molecular Sciences, 2022).
Residue numbers refer to the chain shown, from its start.

How the values were obtained:
Assay type in all cases: cell-based
[1] = target: T1, human 5-HT3A receptor D177A mutant (Homo sapiens, UniProt P46098, D199A); assay: Two-electrode voltage clamp, I5-HT inhibition, D177A mutant; details: −80 mV
T1 sequence (P46098 24-478 D199A): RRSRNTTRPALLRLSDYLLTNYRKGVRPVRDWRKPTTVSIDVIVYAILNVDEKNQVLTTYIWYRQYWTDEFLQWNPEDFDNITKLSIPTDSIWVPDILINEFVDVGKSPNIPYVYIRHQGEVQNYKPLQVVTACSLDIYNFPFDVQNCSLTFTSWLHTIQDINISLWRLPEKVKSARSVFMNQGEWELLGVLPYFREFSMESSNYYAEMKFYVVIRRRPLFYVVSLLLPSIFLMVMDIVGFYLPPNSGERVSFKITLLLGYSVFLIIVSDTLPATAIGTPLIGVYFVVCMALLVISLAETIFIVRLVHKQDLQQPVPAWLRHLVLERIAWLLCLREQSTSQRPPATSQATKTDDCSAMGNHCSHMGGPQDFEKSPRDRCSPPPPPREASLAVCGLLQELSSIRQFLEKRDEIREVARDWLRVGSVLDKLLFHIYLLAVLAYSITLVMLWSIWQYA
Description: Xenopus oocytes were used in this study as cells for expression of human 5-HT3A receptor. All female frogs used in this experiment were obtained from the Korean Xenopus Resource Center for Research (KXRCR000001). […] Xenopus oocytes were extracted during ice incubation state and isolated as single oocytes using collagenase II (2 mg/mL) in OR2 buffer (82.5 mM NaCl, 2 mM KCl, 1 mM MgCl2, 5 mM HEPES, pH 7.4). Isolated oocytes were incubated with ND96 incubation buffer (96 mM NaCl, 2 mM KCl, 1 mM MgCl2, 1.8 mM CaCl2, 5 mM HEPES, 2.5 mM sodium pyruvate, and 50 mg/mL gentamycin, pH 7.4) at 18 °C until the experiment was performed. Human 5-HT3A receptor mRNA was injected into oocytes using a nanoinjector (Drummond Scientific, Broomall, PA, USA) with a mineral-filled 10 μL microdispenser (VWR, Piscataway, NJ, USA).
To confirm the KAE activity on the human 5-HT3A receptor, a two-electrode voltage clamp (OC-725C; Warner Instruments, Hamden, CT, USA) with a Digitata 1550A was used. For the experiment, induced-inward current was converted to digital data with pClamp 10 software (Axon Instruments, Union City, CA, USA). All experiments were performed at room temperature using an oocyte clamp equipped with Digidata. The membrane holding potential was −80 mV.
The voltage relationship experiment for confirming the relationship between induce-inward current and voltage, the voltage was varied from −80 mV to +60 mV using a ramp protocol. […] All recording data were analyzed using Clampfit 9.0 (Molecular Devices, San Jose, CA, USA). […]
(§1) All presented experiments were performed at least three times for scientific verification. […] Induced-inward current data were analyzed with SigmaPlot 10.0 software (Systat Software, Inc., San Jose, CA, USA). […]

[2] = target: T2, human 5-HT3A receptor F199A mutant (Homo sapiens, UniProt P46098, F221A); assay: Two-electrode voltage clamp, I5-HT inhibition, F199A mutant; details: −80 mV
T2 sequence (P46098 24-478 F221A): T1 sequence (P46098 24-478 D199A) with A176D, F198A
Description: Xenopus oocytes were used in this study as cells for expression of human 5-HT3A receptor. All female frogs used in this experiment were obtained from the Korean Xenopus Resource Center for Research (KXRCR000001). […] Isolated oocytes were incubated with ND96 incubation buffer (96 mM NaCl, 2 mM KCl, 1 mM MgCl2, 1.8 mM CaCl2, 5 mM HEPES, 2.5 mM sodium pyruvate, and 50 mg/mL gentamycin, pH 7.4) at 18 °C until the experiment was performed. Human 5-HT3A receptor mRNA was injected into oocytes using a nanoinjector (Drummond Scientific, Broomall, PA, USA) with a mineral-filled 10 μL microdispenser (VWR, Piscataway, NJ, USA).
The voltage relationship experiment for confirming the relationship between induce-inward current and voltage, the voltage was varied from −80 mV to +60 mV using a ramp protocol. Each microelectrode was filled with 3 M KCl having a resistance of 0.2 MΩ. […] The rate of application of the reagent was 2 mL per minute. All recording data were analyzed using Clampfit 9.0 (Molecular Devices, San Jose, CA, USA).
Point mutation was performed using Pfu DNA polymerase (Quikchange II Site-Directed Mutagenesis Kit). Chimeric primer design for PCR was performed under appropriate primer design guidelines. […]
as §1

[3] = target: T3, human 5-HT3A receptor E209A mutant (Homo sapiens, UniProt P46098, E231A); assay: Two-electrode voltage clamp, I5-HT inhibition, E209A mutant
T3 construct: expressed in transfected cells; host or cells: Xenopus oocytes injected with mutant mRNA
T3 sequence (P46098 24-478 E231A): T1 sequence (P46098 24-478 D199A) with A176D, E208A
Description: Human 5-HT3A receptor cDNA was linearized using restriction enzyme XhoI. In vitro transcription was performed using an mMESSAGE mMACHINE T7 Transcription Kit (Thermo Fisher Scientific, Waltham, MA, USA). The final mRNA product was dissolved in 1X Diethyl Pyrocarbonate (RNase-free water) at a final concentration of 1 μg/μL and kept in a deep-freezer at −80 °C until used.
Xenopus oocytes were used in this study as cells for expression of human 5-HT3A receptor. All female frogs used in this experiment were obtained from the Korean Xenopus Resource Center for Research (KXRCR000001). […] Isolated oocytes were incubated with ND96 incubation buffer (96 mM NaCl, 2 mM KCl, 1 mM MgCl2, 1.8 mM CaCl2, 5 mM HEPES, 2.5 mM sodium pyruvate, and […], pH 7.4) at 18 °C until the experiment was performed. Human 5-HT3A receptor mRNA was injected into oocytes using a nanoinjector (Drummond Scientific, Broomall, PA, USA) with a mineral-filled 10 μL microdispenser (VWR, Piscataway, NJ, USA).
For the experiment, induced-inward current was converted to digital data with pClamp 10 software (Axon Instruments, Union City, CA, USA). All experiments were performed at room temperature using an oocyte clamp equipped with Digidata. The membrane holding potential was −80 mV.
The voltage relationship experiment for confirming the relationship between induce-inward current and voltage, the voltage was varied from −80 mV to +60 mV using a ramp protocol. Each microelectrode was filled with 3 M KCl having a resistance of 0.2 MΩ. Serotonin and KAE applied in the experiment were diluted in ND96 bath solution (96 mM NaCl, 2 mM KCl, 1 mM MgCl2, 1.8 mM CaCl2, and 5 mM HEPES, pH 7.5) to specified concentration. The rate of application of the reagent was 2 mL per minute. All recording data were analyzed using Clampfit 9.0 (Molecular Devices, San Jose, CA, USA). […]
All presented experiments were performed at least three times for scientific verification. […] Induced-inward current data were analyzed with SigmaPlot 10.0 software (Systat Software, Inc., San Jose, CA, USA).

O=c1c(O)c(-c2ccc(O)cc2)oc2cc(O)cc(O)c12 [KAE, kaempferol]
n (Hill coefficient) [1]: 1.3 ± 0.2 | IC50 ([1]; Table 1): 13.9 ± 4.2 µM | Vmax ([1]; Table 1): 23.3 ± 13.4% | n (Hill coefficient) [2]: 1.4 ± 0.4 | IC50 ([2]; Table 1): 21.5 ± 5.7 µM | Vmax ([2]; Table 1): 53.3 ± 10.4% | IC50 [3]: 55.1 ± 5.8 µM | Vmax ([3]; E209A, −80 mV): 81.1 ± 9.7% | n (Hill coefficient) ([3]; E209A, −80 mV): 1.7 ± 0.6
